Source: patent US20150296790A1, “SILICON-CONTAINING COMPOUND AQUEOUS SOLUTION AND ANTIBACTERIAL/ANTIVIRAL AGENT INCLUDING SAID SOLUTION” (JEX CO., LTD., priority 2012, published 2015)

Experiment: Solubility of Silicon-Containing Compound E in aqueous CD solutions (clarity and stability, visual)
Assay type: physicochemical
Set-up: key to Solubility of Compound E: Stability: OK: When the aqueous solutions of the CD and the Silicon-Containing Compound E did not exhibit the conditions such as presence of precipitates and deposits, the solutions were considered as stable; NG: When the aqueous solutions of the CD and the Silicon-Containing Compound E exhibited the conditions such as presence of precipitates and deposits, the solutions were not considered as stable; key to Solubility of Compound E: Clarity: When the aqueous solutions of the CD and the Silicon-Containing Compound E were clear, the solutions were rated as “OK”; When the aqueous solutions of the CD and the Silicon-Containing Compound E were not clear, the solutions were rated as “NG”
Conditions: purified water
Description: To determine “Solubility of Compound E” in the tables, the Silicon-Containing Compound E as another solute was added at respective ratios shown in the respective tables (see “Ratio of Compound E” in the tables) to the respective aqueous CD solutions after evaluation of the solubility of CD, and then the mixture was stirred on a shaker to prepare the respective aqueous solutions of the CD and the Silicon-Containing Compound E. Immediately after preparation of the aqueous solutions of the CD and the Silicon-Containing Compound E, the clarity of the aqueous solutions was visually evaluated. When the aqueous solutions of the CD and the Silicon-Containing Compound E were clear, the solutions were rated as “OK”. When the aqueous solutions of the CD and the Silicon-Containing Compound E were not clear, the solutions were rated as “NG”. “Stability” in “Solubility of Compound E” in the tables was determined by allowing the respective aqueous solutions of the CD and the Silicon-Containing Compound E after preparation to stand at ambient temperature for a predetermined period and then visually evaluating the conditions (such as presence of precipitates and deposits) of the solutions.

[1] = β-CD 1 w/w %, Compound E 0.3 w/w %
[2] = β-CD 1 w/w %, Compound E 0.4 w/w %
[3] = β-CD 1 w/w %, Compound E 0.5 w/w %
[4] = β-CD 1 w/w %, Compound E 0.6 w/w %
[5] = β-CD 1 w/w %, Compound E 0.7 w/w %
[6] = β-CD 1 w/w %, Compound E 0.8 w/w %
[7] = β-CD 1 w/w %, Compound E 0.9 w/w %
[8] = β-CD 1 w/w %, Compound E 1 w/w %
[9] = γ-CD 1 w/w %, Compound E 0.1 w/w %
[10] = γ-CD 1 w/w %, Compound E 0.2 w/w %
[11] = γ-CD 1 w/w %, Compound E 0.3 w/w %
[12] = γ-CD 1 w/w %, Compound E 0.4 w/w %
[13] = γ-CD 1 w/w %, Compound E 0.5 w/w %
[14] = γ-CD 1 w/w %, Compound E 0.6 w/w %
[15] = γ-CD 1 w/w %, Compound E 0.7 w/w %
[16] = γ-CD 1 w/w %, Compound E 0.8 w/w %
[17] = γ-CD 1 w/w %, Compound E 0.9 w/w %
[18] = γ-CD 1 w/w %, Compound E 1 w/w %
[19] = γ-CD 3 w/w %, Compound E 0.1 w/w %
[20] = γ-CD 3 w/w %, Compound E 0.2 w/w %
[21] = γ-CD 3 w/w %, Compound E 0.3 w/w %
[22] = γ-CD 3 w/w %, Compound E 0.4 w/w %
[23] = γ-CD 3 w/w %, Compound E 0.5 w/w %
[24] = γ-CD 3 w/w %, Compound E 0.6 w/w %
[25] = γ-CD 3 w/w %, Compound E 0.7 w/w %
[26] = γ-CD 3 w/w %, Compound E 0.8 w/w %
[27] = γ-CD 3 w/w %, Compound E 0.9 w/w %
[28] = γ-CD 3 w/w %, Compound E 1 w/w %
[29] = γ-CD 6 w/w %, Compound E 0.1 w/w %
[30] = γ-CD 6 w/w %, Compound E 0.2 w/w %
[31] = γ-CD 6 w/w %, Compound E 0.3 w/w %
[32] = γ-CD 6 w/w %, Compound E 0.4 w/w %
[33] = γ-CD 6 w/w %, Compound E 0.5 w/w %
[34] = γ-CD 6 w/w %, Compound E 0.6 w/w %
[35] = γ-CD 6 w/w %, Compound E 0.7 w/w %
[36] = γ-CD 6 w/w %, Compound E 0.8 w/w %
[37] = γ-CD 6 w/w %, Compound E 0.9 w/w %
[38] = γ-CD 6 w/w %, Compound E 1 w/w %
[39] = γ-CD 10 w/w %, Compound E 0.1 w/w %
[40] = γ-CD 10 w/w %, Compound E 0.2 w/w %
[41] = γ-CD 10 w/w %, Compound E 0.3 w/w %
[42] = γ-CD 10 w/w %, Compound E 0.4 w/w %
[43] = γ-CD 10 w/w %, Compound E 0.5 w/w %
[44] = γ-CD 10 w/w %, Compound E 0.6 w/w %
[45] = γ-CD 10 w/w %, Compound E 0.7 w/w %
[46] = γ-CD 10 w/w %, Compound E 0.8 w/w %
[47] = γ-CD 10 w/w %, Compound E 0.9 w/w %
[48] = γ-CD 10 w/w %, Compound E 1 w/w %

Compound: CCCCCCCCCCCCCCCCCC[N+](C)(C)CCC[Si](OCC)(OCC)OCC.[Cl-] [Compound E, Octadecyl dimethyl(3-triethoxysilylpropyl)ammonium chloride]
- Solubility of Compound E: Stability (β-CD 1 w/w %, Compound E 0.2 w/w %): OK
- Solubility of Compound E: Clarity [1]: NG
- Solubility of Compound E: Stability [1]: OK
- Solubility of Compound E: Clarity [2]: NG
- Solubility of Compound E: Stability [2]: OK
- Solubility of Compound E: Clarity [3]: NG
- Solubility of Compound E: Stability [3]: OK
- Solubility of Compound E: Clarity [4]: NG
- Solubility of Compound E: Stability [4]: OK
- Solubility of Compound E: Clarity [5]: NG
- Solubility of Compound E: Stability [5]: OK
- Solubility of Compound E: Clarity [6]: NG
- Solubility of Compound E: Stability [6]: OK
- Solubility of Compound E: Clarity [7]: NG
- Solubility of Compound E: Stability [7]: OK
- Solubility of Compound E: Clarity [8]: NG
- Solubility of Compound E: Stability [8]: OK
- Solubility of Compound E: Clarity [9]: OK
- Solubility of Compound E: Stability [9]: OK
- Solubility of Compound E: Clarity [10]: OK
- Solubility of Compound E: Stability [10]: OK
- Solubility of Compound E: Clarity [11]: OK
- Solubility of Compound E: Stability [11]: OK
- Solubility of Compound E: Clarity [12]: OK
- Solubility of Compound E: Stability [12]: OK
- Solubility of Compound E: Clarity [13]: NG
- Solubility of Compound E: Stability [13]: OK
- Solubility of Compound E: Clarity [14]: NG
- Solubility of Compound E: Stability [14]: OK
- Solubility of Compound E: Clarity [15]: NG
- Solubility of Compound E: Stability [15]: OK
- Solubility of Compound E: Clarity [16]: NG
- Solubility of Compound E: Stability [16]: OK
- Solubility of Compound E: Clarity [17]: NG
- Solubility of Compound E: Stability [17]: OK
- Solubility of Compound E: Clarity [18]: NG
- Solubility of Compound E: Stability [18]: OK
- Solubility of Compound E: Clarity [19]: NG
- Solubility of Compound E: Stability [19]: OK
- Solubility of Compound E: Clarity [20]: NG
- Solubility of Compound E: Stability [20]: OK
- Solubility of Compound E: Clarity [21]: NG
- Solubility of Compound E: Stability [21]: OK
- Solubility of Compound E: Clarity [22]: NG
- Solubility of Compound E: Stability [22]: OK
- Solubility of Compound E: Clarity [23]: NG
- Solubility of Compound E: Stability [23]: OK
- Solubility of Compound E: Clarity [24]: NG
- Solubility of Compound E: Stability [24]: OK
- Solubility of Compound E: Clarity [25]: NG
- Solubility of Compound E: Stability [25]: OK
- Solubility of Compound E: Clarity [26]: NG
- Solubility of Compound E: Stability [26]: OK
- Solubility of Compound E: Clarity [27]: NG
- Solubility of Compound E: Stability [27]: OK
- Solubility of Compound E: Clarity [28]: NG
- Solubility of Compound E: Stability [28]: OK
- Solubility of Compound E: Clarity [29]: NG
- Solubility of Compound E: Stability [29]: OK
- Solubility of Compound E: Clarity [30]: NG
- Solubility of Compound E: Stability [30]: OK
- Solubility of Compound E: Clarity [31]: NG
- Solubility of Compound E: Stability [31]: OK
- Solubility of Compound E: Clarity [32]: NG
- Solubility of Compound E: Stability [32]: OK
- Solubility of Compound E: Clarity [33]: NG
- Solubility of Compound E: Stability [33]: OK
- Solubility of Compound E: Clarity [34]: NG
- Solubility of Compound E: Stability [34]: OK
- Solubility of Compound E: Clarity [35]: NG
- Solubility of Compound E: Stability [35]: OK
- Solubility of Compound E: Clarity [36]: NG
- Solubility of Compound E: Stability [36]: OK
- Solubility of Compound E: Clarity [37]: NG
- Solubility of Compound E: Stability [37]: OK
- Solubility of Compound E: Clarity [38]: NG
- Solubility of Compound E: Stability [38]: OK
- Solubility of Compound E: Clarity [39]: NG
- Solubility of Compound E: Stability [39]: NG
- Solubility of Compound E: Clarity [40]: NG
- Solubility of Compound E: Stability [40]: NG
- Solubility of Compound E: Clarity [41]: NG
- Solubility of Compound E: Stability [41]: NG
- Solubility of Compound E: Clarity [42]: NG
- Solubility of Compound E: Stability [42]: NG
- Solubility of Compound E: Clarity [43]: NG
- Solubility of Compound E: Stability [43]: NG
- Solubility of Compound E: Clarity [44]: NG
- Solubility of Compound E: Stability [44]: NG
- Solubility of Compound E: Clarity [45]: NG
- Solubility of Compound E: Stability [45]: NG
- Solubility of Compound E: Clarity [46]: NG
- Solubility of Compound E: Stability [46]: NG
- Solubility of Compound E: Clarity [47]: NG
- Solubility of Compound E: Stability [47]: NG
- Solubility of Compound E: Clarity [48]: NG
- Solubility of Compound E: Stability [48]: NG
